Experimental data taken from patent EP0851756B1, “USE OF ONDANSETRON IN THE MANUFACTURE OF A MEDICAMENT FOR THE TREATMENT OF TREMOR” (GLAXO GROUP LIMITED, priority 1995, dated 1997).
“And” between values parts separate entries of the source, which are not always exact repeats. Identical values can stand only once.

How the values were obtained:
Assay type in all cases: in vivo, patients
[1] = tested on: cerebellar tremor caused by MS, cerebellar degeneration or drug toxicity; experiment: Placebo-controlled, double blind, crossover study: manual co-ordination (spiral copying, word copying or line drawing) judged by blind observers; parameters: key to Spiral Writing drug: 0 = none; + = a little; ++ = moderate; +++ = a lot of improvement
Experimental: (§1) A placebo-controlled, double blind, crossover study of intravenous ondansetron in twenty patients with cerebellar tremor caused by MS, cerebellar degeneration or drug toxicity was conducted. Most had tremor based upon cerebellar involvement from MS; three had familial degenerative disorders involving the cerebellum and one had acquired lithium toxicity. The clinical information and prior treatment of the patients is outlined below in Table 1. Patients were randomly assigned to receive intravenous ondansetron (8mg or a placebo, consisting of normal saline). The drug was given by intravenous bolus injection. Patients were given the alternate agent at a later interval. The principal outcome measure was the change in manual co-ordination tasks as assessed by spiral copying, word copying or line drawing and the time to complete a nine-hole peg test. Only 12 patients had sufficient co-ordination to complete the nine-hole peg test. The clinical outcome was measured at baseline and one hour following the infusion. Figures 1 (a), (b) and (c) represent an attempt to copy a spiral by the first mentioned patient in Table 1. Figure 1(a) represents an attempt prior to treatment with ondansetron; figure 1(b) an attempt after receiving placebo; and figure 1 (c) an attempt after receiving ondansetron.

[2] = tested on: cerebellar tremor caused by MS, cerebellar degeneration or drug toxicity; experiment: Placebo-controlled, double blind, crossover study: time to complete a nine-hole peg test
Experimental: as §1, with “infusion.” for “infusion. Figures 1 (a), (b) and (c) represent an attempt to copy a spiral by the first mentioned patient in Table 1. Figure 1(a) represents an attempt prior to treatment with ondansetron; figure 1(b) an attempt after receiving placebo; and figure 1 (c) an attempt after receiving ondansetron.”

[3] = tested on: cerebellar tremor caused by MS, cerebellar degeneration or drug toxicity; experiment: Placebo-controlled, double blind, crossover study: subjective response and patient identification of treatment assignment; parameters: key to Subjective drug response: 0 = none; + = a little; ++ = moderate; +++ = a lot of improvement
Experimental: A placebo-controlled, double blind, crossover study of intravenous ondansetron in twenty patients with cerebellar tremor caused by MS, cerebellar degeneration or drug toxicity was conducted. Most had tremor based upon cerebellar involvement from MS; three had familial degenerative disorders involving the cerebellum and one had acquired lithium toxicity. The clinical information and prior treatment of the patients is outlined below in Table 1. Patients were randomly assigned to receive intravenous ondansetron (8mg or a placebo, consisting of normal saline). The drug was given by intravenous bolus injection. Patients were given the alternate agent at a later interval. The clinical outcome was measured at baseline and one hour following the infusion. Patient identification of treatment assignment was correct in 12/20 instances and this was based upon efficacy. None believed placebo to be better (p=0.014; Fisher exact ratio).

[4] = tested on: cerebellar tremor caused by MS, cerebellar degeneration or drug toxicity; experiment: Clinical observations: tolerability, long-term use, withdrawal, oral dosing
[5] = individual patients, 8mg intravenous bolus, baseline vs one hour following the infusion

Cc1nccn1CC1CCc2c(c3ccccc3n2C)C1=O (stereo not drawn) [ondansetron, 1,2,3,9-tetrahydro-9-methyl-3-[(2-methyl-1H-imidazol-1-yl)methyl]-4H-carbazol-4-one]
favourable clinical response, MS subgroup ([1]; MS subgroup of 16 patients, number with a response, p=0.001): 13 | favourable clinical response identified by a panel of three blind observers ([1]; entire study group, 8mg intravenous, p=0.009 vs placebo (Fisher exact ratio)): 13 of the 20 | Spiral Writing drug [1, 5]: + (6×) and +++ (4×) and ++ (4×) and 0 (5×) | Spiral Writing drug, Ratio ([1]; patients with improvement / patients assessed, 8mg intravenous, placebo 1/19): 13/19 | 9 hole peg-drug ([2]; individual patients, 8mg intravenous bolus, one hour following the infusion): 110 secs and 63 secs and 155 secs and 55 secs (2×) and 48 secs and 180 secs and 85 secs and 57 secs and 45 secs and 70 secs and 29 secs | 9 hole peg-drug (secs), Mean ([2]; mean of 12 patients, 8mg intravenous, placebo 87±12): 79 ± 13 s | mean time for the completion of the nine hole peg test ([2]; ± standard error, 8mg intravenous, placebo 87 ± 12, p=0.04 (Mann Whitney, one tailed, paired)): 79 ± 13 s | Patient identification of treatment assignment correct ([3]; based upon efficacy, none believed placebo to be better (p=0.014; Fisher exact ratio)): 12/20 | Subjective drug response [3, 5]: ++ (5×) and 0 (8×) and + (3×) and +++ (3×) and + (dysarthria) | speech after treatment ([3]; one patient with cerebellar degeneration too disabled to complete the tasks (Cd2, Table 1)): improved speech | Subjective drug response, Ratio ([3]; patients with improvement / patients assessed, 8mg intravenous, placebo 0/18): 12/20 | sustaining of the effect in the long term ([4]; long term use): could be sustained in the long term | reproduction of the effect of intravenous ondansetron by oral dosing ([4]; oral ondansetron (8-16mg)): could be reproduced | tolerability ([4]; patients with cerebellar tremor): well tolerated | tremor after withdrawal of the medication ([4]; withdrawal): tremor returning to pre-study levels
